What was measured:
[1] = molecular target: T1, Hck (Homo sapiens, UniProt P08631); assay: Hck enzyme inhibition (Z-LYTE FRET); format: biochemical; settings: Table 2A
T1 construct: purchased Life Technologies
Description: The enzyme inhibitory activities of compounds disclosed herein were determined by FRET using synthetic peptides labelled with both donor and acceptor fluorophores (Z-LYTE, Life Technologies, Paisley, UK).
The relevant enzyme (1000 ng/mL, 1400 ng/mL or 2000 ng/mL respectively, 2.5 μL) was incubated with the test compound (either 40 μg/mL, 12 μg/mL, 4 μg/mL, 1.2 μg/mL, 0.4 μg/mL, 0.12 μg/mL, 0.04 μg/mL, 0.012 μg/mL, 0.004 μg/mL or 0.0012 μg/mL, 2.5 μL each) for 2 h at RT. The FRET peptides (8 μM, 2.5 μL), and appropriate ATP solutions (2.5 μL, 800 μM for c-Src, and 60 μM ATP for HCK and Syk) were then added to the enzyme/compound mixtures and incubated for 1 h at RT. Development reagent (protease, 5 μL) was added for 1 h prior to detection in a fluorescence microplate reader (EnVision, Perkin Elmer).
In all cases, the site-specific protease cleaves non-phosphorylated peptide only and eliminates the FRET signal. Phosphorylation levels of each reaction were calculated using the ratio of coumarin emission (donor) over fluorescein emission (acceptor), for which low ratios indicate high phosphorylation and high ratios indicate low phosphorylation levels.

[2] = system: IL-8 release in d-U937 cells; assay: LPS-induced IL-8 release in d-U937 cells; format: cell-based; settings: Homo sapiens, dU937, LPS 0.1 μg/mL 4 h
Description: (§1) U937 cells, a human monocytic cell line, were differentiated into macrophage-type cells by incubation with PMA (100-200 ng/mL) for 48 to 72 h. Cells were pre-incubated with final […] concentrations of test compound for 2 h and were then stimulated with LPS (0.1 μg/mL; from E. coli: O111:B4, Sigma) for 4 h. The supernatant was collected for determination of TNFα and IL-8 concentrations by sandwich ELISA (Duo-set, R&D systems). […] The relative 50% effective concentration (REC50) was determined from the resultant concentration-response curve. The inhibition of IL-8 production was calculated at each concentration of test compound by comparison with vehicle control.

[3] = system: TNFα release in d-U937 cells; assay: LPS-induced TNFα release in d-U937 cells; format: cell-based; settings: Homo sapiens, dU937; read-out: LPS Induced Release TNFα REC50 (dU937); further: relative to 10 µg/mL BIRB-796
Description: as §1

[4] = system: ICAM-1 expression in BEAS2B cells; assay: Poly I:C-induced ICAM-1 expression in BEAS2B cells; format: cell-based; settings: Homo sapiens, BEAS-2B, read-out: PolyIC/ICAM1 IC50 (BEAS2B)
Description: Poly I:C was used in these studies as a simple, RNA virus mimic. Poly I:C-Oligofectamine mixture (2% Oligofectamine±1 μg/mL Poly I:C, 25 μL; Life Technologies and Invivogen Ltd., San Diego, Calif., respectively) was transfected into BEAS2B cells (human bronchial epithelial cells, ATCC). Cells were pre-incubated with final concentrations of test compounds for 2 h and the level of ICAM-1 expression on the cell surface was determined by cell-based ELISA. At a time point 18 h after poly I:C transfection, cells were fixed with 4% formaldehyde in PBS (100 μL) and then endogenous peroxidase was quenched by the addition of washing buffer (100 μL, 0.05% Tween in PBS: PBS-Tween) containing 0.1% sodium azide and 1% hydrogen peroxide. Cells were washed with wash-buffer (3×200 μL). After blocking the wells with 5% milk in PBS-Tween (100 μL) for 1 h, the cells were incubated with anti-human ICAM-1 antibody (50 μL; Cell Signaling Technology, Danvers, Mass.) in 1% BSA PBS overnight at 4° C.
The cells were washed with PBS-Tween (3×200 μL) and incubated with the secondary antibody (100 μL; HRP-conjugated anti-rabbit IgG, Dako Ltd., Glostrup, Denmark). The cells were then incubated with of substrate (50 μL) for 2-20 min, followed by the addition of stop solution (50 μL, 1N H2SO4). The ICAM-1 signal was detected by reading the absorbance at 450 nm against a reference wavelength of 655 nm using a spectrophotometer. The cells ware then washed with PBS-Tween (3×200 μL) and total cell numbers in each well were determined by reading absorbance at 595 nm after Crystal Violet staining (50 μL of a 2% solution in PBS) and elution by 1% SDS solution (100 μL) in PBS. The measured OD 450-655 readings were corrected for cell number by dividing with the OD595 reading in each well. The inhibition of ICAM-1 expression was calculated at each concentration of test compound by comparison with vehicle control.

T1 sequence (P08631 22-526): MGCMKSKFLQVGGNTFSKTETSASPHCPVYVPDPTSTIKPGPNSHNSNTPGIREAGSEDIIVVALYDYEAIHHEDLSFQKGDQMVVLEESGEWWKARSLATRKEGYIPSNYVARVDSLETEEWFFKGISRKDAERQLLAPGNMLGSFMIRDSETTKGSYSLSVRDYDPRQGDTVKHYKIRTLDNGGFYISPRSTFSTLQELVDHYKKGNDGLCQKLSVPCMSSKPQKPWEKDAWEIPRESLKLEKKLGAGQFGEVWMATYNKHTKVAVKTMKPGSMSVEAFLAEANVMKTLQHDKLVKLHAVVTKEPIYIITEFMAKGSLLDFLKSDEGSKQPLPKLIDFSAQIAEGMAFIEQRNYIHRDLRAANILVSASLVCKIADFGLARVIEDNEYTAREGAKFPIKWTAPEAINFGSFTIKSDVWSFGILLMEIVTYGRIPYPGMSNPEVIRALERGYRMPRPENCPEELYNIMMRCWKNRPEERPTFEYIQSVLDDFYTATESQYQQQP

Structure (SMILES) | IC50 [1] [nM] | IC50 [2] [nM] | EC50 [3] [nM] | IC50 [4] [nM]
Cc1ccc(-n2nc(C(C)(C)C)cc2NC(=O)Nc2ccc(OCc3ccnc(Nc4cnc(C(=O)NCCN5CCOCC5)cn4)c3)c3ccccc23)cc1 [Example 17] | 17 | 16.5 | 12.7 | 433
Cc1cc(-n2nc(C(C)(C)C)cc2NC(=O)Nc2ccc(OCc3ccnc(Nc4cncc(C5CC5)n4)c3)c3ccccc23)cs1 [Example 27] | 13 | 4 | 4.3 | 71.2
COCCNC(=O)c1cnc(Nc2cc(COc3ccc(NC(=O)Nc4cc(C(C)(C)C)nn4-c4csc(C)c4)c4ccccc34)ccn2)cn1 [Example 44] | 58 | 52.2 | 88.2 | 1150
Cc1ccc(-n2nc(C(C)(C)C)cc2NC(=O)Nc2ccc(OCc3ccnc(Nc4cnc(CN)cn4)c3)c3ccccc23)cc1 [Example 5, 1-(4-((2-((5-(Aminomethyl)pyrazin-2-yl)amino)pyridin-4-yl)methoxy)naphthalen-1-yl)-3-(3-(tert-butyl)-1-(p-tolyl)-1H-pyrazol-5-yl)urea] | < 0.48 | 2.4 | 2.8 | 474
COc1ccc(-n2nc(C(C)(C)C)cc2NC(=O)Nc2ccc(OCc3ccnc(Nc4cnc(CO)cn4)c3)c3ccccc23)cc1 [Example 23] | 13 | 6.2 | 3.1 | 33.5
Cc1ccc(-n2nc(C(C)(C)C)cc2NC(=O)Nc2ccc(OCc3ccnc(Nc4cnccn4)c3)c3ccccc23)cc1C(F)(F)F [Example 52] | 316 | > 1500 | 18.7 | > 1500
Cc1ccc(-n2nc(C(C)(C)C)cc2NC(=O)Nc2ccc(OCc3ccnc(Nc4cnc(C(=O)N5CCOCC5)cn4)c3)c3ccccc23)cc1 [Example 35] | 42 | 102 | 12.1 | 113
COc1ccc(-n2nc(C(C)(C)C)cc2NC(=O)Nc2ccc(OCc3ccnc(Nc4cncc(C5CC5)n4)c3)c3ccccc23)cc1 [Example 22] | 14 | 1.6 | 2.1 | 19.6
Cc1cc(-n2nc(C(C)(C)C)cc2NC(=O)Nc2ccc(OCc3ccnc(Nc4cnccn4)c3)c3ccccc23)cs1 (single isomer, unassigned) [Example 31] | 59 | 33.4 | 1 | 874
Cc1ccc(-n2nc(C(C)(C)C)cc2NC(=O)Nc2ccc(OCc3ccnc(Nc4cnccn4)c3)c3ccccc23)s1 [Example 13] | 49 | 7.8 | 18.2 | 556
CNC(=O)Cc1cnc(Nc2cc(COc3ccc(NC(=O)Nc4cc(C(C)(C)C)nn4-c4ccc(C)cc4)c4ccccc34)ccn2)cn1 [Example 33] | 11 | 42.4 | 2.6 | 150
CC(C)(C)c1cc(NC(=O)Nc2ccc(OCc3ccnc(Nc4cnccn4)c3)c3ccccc23)n(-c2ccc(Cl)cc2)n1 [Example 45] | 2240 | 17.1 | 3.5 | 1440
COCCNC(=O)c1cnc(Nc2cc(COc3ccc(NC(=O)Nc4cc(C(C)(C)C)nn4-c4ccc(C)cc4)c4ccccc34)ccn2)cn1 [Example 3] | 66 | 8.8 | 5.5 | 460
Cc1ccc(-n2nc(C(C)(C)C)cc2NC(=O)Nc2ccc(OCc3ccnc(Nc4cncc(CC(=O)N(C)C)n4)c3)c3ccccc23)cc1 [Example 8, 2-(6-((4-(((4-(3-(3-(tert-butyl)-1-(p-tolyl)-1H-pyrazol-5-yl)ureido)naphthalen-1-yl)oxy)methyl)pyridin-2-yl)amino)pyrazin-2-yl)-N,N-dimethylacetamide] | 10 | 10.3 | 3.9 | 31.5
CC(C)(C)c1cc(NC(=O)Nc2ccc(OCc3ccnc(Nc4cnccn4)c3)c3ccccc23)n(-c2cccc(F)c2)n1 [Example 49] | 115 | 24.3 | 2.3 | 474
Cc1ccc(-n2nc(C(C)(C)C)cc2NC(=O)Nc2ccc(OCc3ccnc(Nc4cncc(C)n4)c3)c3ccccc23)cc1 [Example 20] | 52 | 1.3 | 1.3 | 152
Cc1ccc(-n2nc(C(C)(C)C)cc2NC(=O)Nc2ccc(OCc3ccnc(Nc4cncc(C#N)n4)c3)c3ccccc23)cc1 [Example 11] | > 8890 | 12.5 | 2.3 | > 1600
Cc1ccc(-n2nc(C(C)(C)C)cc2NC(=O)Nc2ccc(OCc3ccnc(Nc4cnc(CC(N)=O)cn4)c3)c3ccccc23)cc1 [Example 30] | 6 | 6.9 | 5.2 | 115
CC(=O)NCc1cnc(Nc2cc(COc3ccc(NC(=O)Nc4cc(C(C)(C)C)nn4-c4ccc(C)cc4)c4ccccc34)ccn2)cn1 [Example 6, N-((5-((4-(((4-(3-(3-(tert-butyl)-1-(p-tolyl)-1H-pyrazol-5-yl)ureido)naphthalen-1-yl)oxy)methyl)pyridin-2-yl)amino)pyrazin-2-yl)methyl)acetamide] | 10 | 90.7 | 8.5 | 52.4
Cc1ccc(-n2nc(C(C)(C)C)cc2NC(=O)Nc2ccc(OCc3ccnc(Nc4cncc(C5CC5)n4)c3)c3ccccc23)s1 [Example 24] | 18 | 4.5 | 3.1 | 55.1
CCc1cnc(Nc2cc(COc3ccc(NC(=O)Nc4cc(C(C)(C)C)nn4-c4ccc(C)cc4)c4ccccc34)ccn2)cn1 [Example 37] | 142 | 19.3 | 14.3 | 611
Cc1ccc(-n2nc(C(C)(C)C)cc2NC(=O)Nc2ccc(OCc3ccnc(Nc4cnc(C5CC5)cn4)c3)c3ccccc23)cc1 [Example 16] | 355 | 89.6 | 144 | > 1560
CC(C)(C)c1cc(NC(=O)Nc2ccc(OCc3ccnc(Nc4cnccn4)c3)c3ccccc23)n(-c2cccc(Cl)c2)n1 [Example 50] | 113 | 30.3 | 7.1 | > 1620

Source: patent US11142515B2, “Pyrazolyl-ureas as kinase inhibitors” (RESPIVERT LIMITED, priority 2014, dated 2021)
